{"source": "patent US12465610B2", "about": "“Compounds and methods for the treatment of PKR-associated diseases” (Board of Regents, The University of Texas System, priority 2019, dated 2025)", "key": {"PI3Kb": {"target": "PI3Kb (Homo sapiens, UniProt P42338)", "sequence (P42338 whole entry)": "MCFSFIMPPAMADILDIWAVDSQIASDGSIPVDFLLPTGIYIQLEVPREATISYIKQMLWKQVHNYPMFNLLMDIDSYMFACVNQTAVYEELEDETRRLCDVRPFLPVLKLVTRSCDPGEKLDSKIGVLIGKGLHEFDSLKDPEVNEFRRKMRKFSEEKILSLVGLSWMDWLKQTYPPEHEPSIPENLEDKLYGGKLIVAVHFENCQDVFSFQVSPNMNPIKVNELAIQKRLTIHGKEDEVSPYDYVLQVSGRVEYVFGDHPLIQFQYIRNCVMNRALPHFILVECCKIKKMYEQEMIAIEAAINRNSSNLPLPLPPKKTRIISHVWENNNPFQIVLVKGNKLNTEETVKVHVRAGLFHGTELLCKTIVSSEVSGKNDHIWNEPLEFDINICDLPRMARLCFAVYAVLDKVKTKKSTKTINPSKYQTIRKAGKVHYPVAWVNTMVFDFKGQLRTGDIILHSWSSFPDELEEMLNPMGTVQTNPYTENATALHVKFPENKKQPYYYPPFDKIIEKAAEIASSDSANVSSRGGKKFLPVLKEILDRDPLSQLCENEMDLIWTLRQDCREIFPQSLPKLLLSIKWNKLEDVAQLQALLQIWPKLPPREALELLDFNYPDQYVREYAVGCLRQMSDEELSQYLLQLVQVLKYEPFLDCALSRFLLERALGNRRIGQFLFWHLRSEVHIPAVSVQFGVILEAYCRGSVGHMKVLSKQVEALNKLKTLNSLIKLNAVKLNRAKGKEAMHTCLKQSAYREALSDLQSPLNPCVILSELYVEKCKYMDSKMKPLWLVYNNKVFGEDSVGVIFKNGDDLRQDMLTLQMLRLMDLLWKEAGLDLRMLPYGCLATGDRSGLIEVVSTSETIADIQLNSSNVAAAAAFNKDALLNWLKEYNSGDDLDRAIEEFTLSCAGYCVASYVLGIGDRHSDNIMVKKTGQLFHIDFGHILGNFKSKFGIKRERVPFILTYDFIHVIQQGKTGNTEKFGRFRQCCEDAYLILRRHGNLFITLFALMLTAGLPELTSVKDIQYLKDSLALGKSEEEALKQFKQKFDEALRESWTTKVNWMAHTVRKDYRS", "sequence (P27986 whole entry partner)": "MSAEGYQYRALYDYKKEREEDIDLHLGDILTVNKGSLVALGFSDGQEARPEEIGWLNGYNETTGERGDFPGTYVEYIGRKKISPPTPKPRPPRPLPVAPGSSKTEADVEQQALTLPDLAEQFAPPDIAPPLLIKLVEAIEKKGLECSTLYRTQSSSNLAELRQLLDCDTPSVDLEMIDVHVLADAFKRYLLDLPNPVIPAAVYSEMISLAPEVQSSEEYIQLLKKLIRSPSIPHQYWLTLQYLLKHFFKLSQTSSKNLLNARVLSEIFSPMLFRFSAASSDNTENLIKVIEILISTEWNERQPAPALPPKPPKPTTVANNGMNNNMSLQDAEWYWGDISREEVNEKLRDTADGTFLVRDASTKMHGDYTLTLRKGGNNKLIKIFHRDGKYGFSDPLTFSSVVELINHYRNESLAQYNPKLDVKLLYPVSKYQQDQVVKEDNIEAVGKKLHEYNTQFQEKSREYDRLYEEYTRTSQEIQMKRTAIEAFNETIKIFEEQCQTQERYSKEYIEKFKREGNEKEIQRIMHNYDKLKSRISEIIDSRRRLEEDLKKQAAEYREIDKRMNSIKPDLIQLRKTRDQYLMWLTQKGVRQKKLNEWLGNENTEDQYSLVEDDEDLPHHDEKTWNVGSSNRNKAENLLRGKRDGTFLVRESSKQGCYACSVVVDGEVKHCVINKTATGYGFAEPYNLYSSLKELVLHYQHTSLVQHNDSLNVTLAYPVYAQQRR", "test": "ADP-Glo kinase assay, high-throughput enzymatic screening (Reaction Biology)", "format": "biochemical"}, "LOVO colon cancer cells": {"test_system": "LOVO colon cancer cells", "test": "SRB cell viability assay", "format": "cell-based, human", "settings": "72 hours after treatment", "excerpt": "PKR and PI4K2A expression are associated with poor prognosis in cancer patients: PKR and PI4K2A are encoded by the EIF2AK2 and PI4K2A genes, respectively. […] It was also examined the expression of PKR using immunohistochemical staining of five normal skin and five breast tumor samples and observed that all of the breast tumor cells had high cytoplasmic PKR expression (FIG. 7C). However, all of the normal skin cells had low cytoplasmic PKR expression, and some of them had high nuclear PKR expression. […] Furthermore, the association between EIF2AK2 or PI4K2A gene expression and overall survival was evaluated in colorectal cancer patients using the TCGA data set. […]\nCell viability assays: For SRB assays, cells (2-8×10^3/well in 100 μL of culture medium) were seeded in 96-well flat-bottomed plates and treated the next day with compounds at the indicated concentrations. […] The protein was stained with SRB, and the optical density at 570 nm was determined. Relative cell viability was calculated by setting the viability rate of the control cells (exposed only to dimethyl sulfoxide) at 100% and comparing the viability of the treated cells with that of the controls. […] The viability of leukemia cell lines was determined by using a 3-(4,5-dimethylthiazol-2-yl)-2,5-diphenyltetrazolium bromide assay. […]"}, "HeLa cells [1]": {"test_system": "HeLa cells", "test": "SRB cell viability assay", "format": "cell-based, human", "settings": "72 hours after treatment", "protocol": "(§1) Anticancer effects of PKR-targeting compounds depend on PKR expression status: To identify compounds that can target lysosomes in PKR-positive cells or MVBs/exosomes in PKR-negative cells, the 10,000-compound ChemBridge library was screened for compounds with different effects on the growth of HeLa and HeLaPKRkd cells. […] SRB assays were next used to determine cell viability after treatment with Pac 1 or Pac 2.\n(§2) Cell viability assays: For SRB assays, cells (2-8×10^3/well in 100 μL of culture medium) were seeded in 96-well flat-bottomed plates and treated the next day with compounds at the indicated concentrations. After the indicated treatments, cells were fixed with trichloroacetic acid. The protein was stained with SRB, and the optical density at 570 nm was determined. Relative cell viability was calculated by setting the viability rate of the control cells (exposed only to dimethyl sulfoxide) at 100% and comparing the viability of the treated cells with that of the controls. The experiments were performed at least three times for each cell line. The viability of leukemia cell lines was determined by using a 3-(4,5-dimethylthiazol-2-yl)-2,5-diphenyltetrazolium bromide assay.\nIdentification of PKR-associated compounds and cytotoxicity studies: The library of 10,000 compounds was screened for those with different effects on the growth of HeLa and HeLaPKRkd cells. […] Treated cells were observed under a microscope to detect morphologic changes, and their viability was determined using SRB assays 2 and 3 days after treatment. […]\nFor the SRB assay, cells (2-8×10^3/well in 100 μL of culture medium) were seeded in 96-well flat-bottomed plates and treated the next day with compounds at the indicated concentrations. […] The cells were stained using SRB, and the optical density at 570 nm was determined. Relative cell viability was determined by setting the viability of the control cells (exposed only to dimethyl sulfoxide) at 100% and comparing their viability with that of the treated cells. […]"}, "A549": {"test_system": "A549", "test": "SRB cell viability assay", "format": "cell-based, human", "settings": "72 hours after treatment", "protocol": "(§3) The effects of Pac 1 and Pac 2 were next examined on PKR protein expression in HeLa cells using Western blot analysis. […] No reduction in normal cell viability was observed after treatment with Pac 1 or Pac 2 (FIGS. 5F and G). […] Because most of the cancer cell lines that were tested were more sensitive to Pac 1 than to Pac 2, Pac 1 was further investigated.\nas §2\n(§4) For the SRB assay, cells (2-8×10^3/well in 100 μL of culture medium) were seeded in 96-well flat-bottomed plates and treated the next day with compounds at the indicated concentrations. After treatment for the indicated times, cells were fixed with trichloroacetic acid. The cells were stained using SRB, and the optical density at 570 nm was determined. Relative cell viability was determined by setting the viability of the control cells (exposed only to dimethyl sulfoxide) at 100% and comparing their viability with that of the treated cells. The experiments were performed at least three times for each cell line."}, "breast cancer cell lines": {"test_system": "breast cancer cell lines", "test": "SRB cell viability assay", "format": "cell-based, human", "settings": "72 hours after treatment", "protocol": "as §3, §2, §4"}, "H1299": {"test_system": "H1299", "test": "SRB cell viability assay", "format": "cell-based, human", "settings": "72 hours after treatment", "protocol": "as §3, §2, §4"}, "PIM3": {"target": "PIM3 (Homo sapiens, UniProt Q86V86)", "test": "High-throughput enzymatic screening", "format": "biochemical"}, "PI4KIIb": {"target": "PI4KIIb (Homo sapiens, UniProt Q8TCG2)", "sequence (Q8TCG2 whole entry)": "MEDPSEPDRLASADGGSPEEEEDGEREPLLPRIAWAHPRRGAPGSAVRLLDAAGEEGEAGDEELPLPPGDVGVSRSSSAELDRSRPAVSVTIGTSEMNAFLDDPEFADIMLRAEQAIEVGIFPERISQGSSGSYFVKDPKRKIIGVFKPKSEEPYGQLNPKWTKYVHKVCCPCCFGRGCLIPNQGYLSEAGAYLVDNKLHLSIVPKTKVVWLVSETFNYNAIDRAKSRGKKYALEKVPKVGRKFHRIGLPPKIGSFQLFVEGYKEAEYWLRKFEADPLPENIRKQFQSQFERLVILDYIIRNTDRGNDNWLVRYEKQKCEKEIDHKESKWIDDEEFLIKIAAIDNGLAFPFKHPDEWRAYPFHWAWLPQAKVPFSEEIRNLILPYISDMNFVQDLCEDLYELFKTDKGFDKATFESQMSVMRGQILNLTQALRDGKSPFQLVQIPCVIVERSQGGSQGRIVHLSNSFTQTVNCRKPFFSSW", "test": "ADP-Glo kinase assay, high-throughput enzymatic screening (Reaction Biology)", "format": "biochemical"}, "PI4K2A kinase": {"target": "PI4K2A kinase (Homo sapiens, UniProt Q9BTU6)", "sequence (Q9BTU6 whole entry)": "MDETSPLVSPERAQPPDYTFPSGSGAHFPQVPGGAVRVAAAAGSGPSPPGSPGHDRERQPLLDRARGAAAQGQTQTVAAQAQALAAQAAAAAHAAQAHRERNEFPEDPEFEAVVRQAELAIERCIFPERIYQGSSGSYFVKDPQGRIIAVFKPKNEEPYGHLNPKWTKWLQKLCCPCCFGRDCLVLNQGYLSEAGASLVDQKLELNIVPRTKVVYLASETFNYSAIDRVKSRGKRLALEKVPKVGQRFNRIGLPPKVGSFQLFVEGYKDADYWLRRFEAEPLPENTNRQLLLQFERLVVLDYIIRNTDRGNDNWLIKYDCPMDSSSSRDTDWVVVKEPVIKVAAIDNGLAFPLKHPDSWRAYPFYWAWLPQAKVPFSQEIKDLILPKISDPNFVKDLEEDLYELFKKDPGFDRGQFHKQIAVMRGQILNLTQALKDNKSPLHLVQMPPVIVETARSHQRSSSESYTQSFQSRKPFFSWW", "test": "ADP-Glo kinase assay, high-throughput enzymatic screening (Reaction Biology)"}, "AP-1/2/3 complexes": {"test_system": "AP-1/2/3 complexes", "test": "Western blot of AP-1, AP-2 and AP-3 complex-associated proteins", "format": "cell-based, human", "settings": "H1299 and MDA-MB-231 cells", "excerpt": "(§5) Western blotting was next used to evaluate proteins known to be involved in AP-1/2/3 complexes in lung (H1299) and breast (MDA-MB-231) cancer cells after treatment with Pac 1 or Pac 2. […] AP-1 and AP-2 mediate protein sorting in the endosome, trans-Golgi network, and plasma membrane. […] The impact of Pac 1 was then investigated on lysosome function by staining cells with the acidophilic dye LysoTracker Red."}, "[2]": {"test_system": "MDA-MB-231 tumor xenografts", "test": "Tumor xenograft growth in mice", "format": "in vivo", "settings": "intravenous injection, over 4 weeks", "protocol": "as §3\n(§6) Analysis of in vivo tumor growth after treatment with Pac 1: For in vivo tumor studies, MDA-MB-231 or H1299 cells (˜1×10^6) were resuspended in 0.1 mL of PBS and injected subcutaneously into the flanks of female severe combined immunodeficiency mice. When the resulting tumors reached 100-150 mm^3 in volume, the mice were stratified into groups of eight animals, with each group having approximately equal mean tumor volumes, and administered intravenous injection of Pac 1. The animals were weighed weekly, and their tumor diameters were measured twice weekly. When a tumor reached 2000 mm^3 or became necrotic, the animal was killed."}, "H1299 tumor xenografts": {"test_system": "H1299 tumor xenografts", "test": "Tumor xenograft growth in mice", "format": "in vivo", "protocol": "as §3, §6"}, "HeLa cells [3]": {"test_system": "HeLa cells", "test": "Microscopic analysis of morphologic changes", "format": "cell-based, human", "excerpt": "as §1\nIdentification of PKR-associated compounds and cytotoxicity studies: The library of 10,000 compounds was screened for those with different effects on the growth of HeLa and HeLaPKRkd cells. For this screening, both HeLa and HeLaPKRkd cells were seeded in 96-well plates in parallel and treated with each compound at a final concentration of 5 μg/mL. Cells treated with dimethyl sulfoxide (final concentration, 1%) were used as controls. Treated cells were observed under a microscope to detect morphologic changes, and their viability was determined using SRB assays 2 and 3 days after treatment. The compounds initially observed to have different effects on HeLa and HeLaPKRkd cells were subjected to two confirmatory screenings."}, "[4]": {"test_system": "acidic vesicular organelles (lysosomes)", "test": "LysoTracker Red staining", "format": "cell-based, human", "settings": "HeLa, H1299, and MDA-MB-231 cells, 5 μM, 72 hours", "excerpt": "as §5\nLysoTracker red staining, confocal microscopy, and tem: The acidophilic dye LysoTracker Red stains lysosomes. Cancer cells (1×10^5 cells/well) were grown on two-well chamber slides (Becton Dickinson Labware, Bedford, MA) to 70% confluence and then treated with PKR siRNA or control siRNA. Forty-eight hours later (when cells had grown to 70-80% confluence), the medium was replaced with medium containing 75 nM LysoTracker Red. The cells were incubated with LysoTracker Red for 1 hour and then rinsed one time with 1 mL of PBS. The cells were kept in PBS for microscopic imaging."}, "PI4K2A protein": {"test_system": "PI4K2A protein", "test": "Thermal shift assay (differential scanning fluorimetry)", "format": "binding"}}, "data": [{"smiles": "O=C(N/N=C\\c1c(O)ccc2ccccc12)c1cccc2cc[nH]c12", "note": "[Pac 1, N′—[(Z)-(2-Hydroxy-1-naphthyl)methylene]-1H-indole-7-carbohydrazide]", "values": [{"measurement": "inhibition of kinase activity", "setting": "PI3Kb", "value": "not other kinases"}, {"measurement": "growth of LOVO colon cancer cells", "setting": "LOVO colon cancer cells", "value": "inhibited the growth"}, {"measurement": "viability of HeLa cells", "setting": "HeLa cells [1]", "value": "suppressed more effectively by Pac 1 than by Pac 2"}, {"measurement": "sensitivity (viability) of A549 cells", "setting": "A549", "value": "more sensitive to treatment with Pac 1 than that with Pac 2"}, {"measurement": "growth of breast cancer cell lines", "setting": "breast cancer cell lines", "value": "inhibited the growth"}, {"measurement": "sensitivity (viability) of H1299 cells", "setting": "H1299", "value": "more sensitive to treatment with Pac 1 than that with Pac 2"}, {"measurement": "inhibition of PIM3/1 activity", "setting": "PIM3", "value": "markedly inhibited"}, {"measurement": "inhibition of kinase activity", "setting": "PI4KIIb", "value": "not other kinases"}, {"measurement": "IC50", "setting": "PI4K2A kinase", "value": 2500, "unit": "nM"}, {"measurement": "PI4K2A, Lamp1, Lamp2, and AP-3δ expression", "setting": "AP-1/2/3 complexes; 5 μM, 72 hours", "value": "significantly inhibited"}, {"measurement": "expression of proteins associated with AP-1 (Rab7α, HSC70, AP-1γ) or AP-2 (AP-2α)", "setting": "AP-1/2/3 complexes; 72 hours after treatment", "value": "No reduction of expression"}, {"measurement": "growth of MDA-MB-231 tumor xenografts", "setting": "[2]", "value": "inhibited the growth"}, {"measurement": "expression of PKR, p-PKR, and Ki-67 protein in tumors", "setting": "H1299 tumor xenografts; H1299 tumors, immunohistochemical analysis", "value": "dramatically suppressed"}, {"measurement": "growth of H1299 tumor xenografts", "setting": "H1299 tumor xenografts; intravenous injection, over 4 weeks", "value": "inhibited the growth"}, {"measurement": "growth of HeLa cells by microscopy", "setting": "HeLa cells [3]", "value": "suppressed the growth of HeLa cells more effectively than did treatment with Pac 2"}, {"measurement": "numbers of acidic vesicular organelles", "setting": "[4]", "value": "substantially decreased"}, {"measurement": "binding to PI4K2A and change of melting temperature", "setting": "PI4K2A protein", "value": "binds to PI4K2A and causes a decrease in the melting temperature"}]}]}
